Source: EP1290011B1 (Oncopeptides AB, priority 2000, dated 2001)
Counter-ions that a name gives are not always drawn.

Experiments:
[1] = test system: sarcoma 45; details: rat, in vivo; cited from earlier work
[2] = test system: oxidative phosphorylation in mitochondria from rat liver homogenates and Jensen sarcoma cells; details: cited from earlier work
[3] = test system: Corpus cancer; assay: Cytotoxic activity in different tumour models; type: cell-based, human; details: Number 4
[4] = test system: Solid tumours (PHTC); assay: FMCA in PHTC cultures, Table 4, solid; details: 4 µM; n=12-20; 4320 min
[5] = test system: Hematological tumours (PHTC); assay: FMCA in PHTC cultures, Table 4, hematological; details: 4 µM; n=7-11; 4320 min
[6] = test system: CEM/S; assay: cells; type: cell-based, human; details: CEM/S; 72 hours incubation; read-out: IC50
[7] = test system: H69AR; assay: cells; type: cell-based, human; details: H69AR, doxorubicin resistance; 72 hours incubation; read-out: IC50
[8] = test system: Prostate cancer; assay: Cytotoxic activity in different tumour models; type: cell-based, human; details: Number 1
[9] = test system: hematological fresh human tumour specimens (PHTC); details: 0.66 µM; n=42; 4320 min
[10] = test system: PHTC samples from 9 patients with hematological and 18 patients with solid tumours; assay: Circumvention of melphalan resistance: FMCA classification of PHTC samples as LDR, IDR, EDR; type: cell-based, human; details: tested at 4 µM
[11] = test system: 8226LR5; assay: cells; type: cell-based, human; details: 8226LR5, melphalan resistance; 72 hours incubation; read-out: IC50
[12] = test system: H69; assay: cells; type: cell-based, human; details: H69, small cell lung cancer; 72 hours incubation; read-out: IC50
[13] = test system: NSC Lung cancer; assay: Cytotoxic activity in different tumour models; type: cell-based, human; details: Number 8
[14] = test system: Breast cancer; assay: Cytotoxic activity in different tumour models; type: cell-based, human; details: Number 4
[15] = test system: primary cultures of human tumor cells from patients (PHTC), Total; assay: FMCA in PHTC cultures, Table 4, total; details: 4 µM; n=19-31; 4320 min
[16] = test system: 8226Dox40; assay: cells; type: cell-based, human; details: 8226Dox40, doxorubicin resistance; 72 hours incubation; read-out: IC50
[17] = test system: U937gtb; assay: cells; type: cell-based, human; details: U937gtb, lymphoma; 72 hours incubation; read-out: IC50
[18] = test system: RPMI 8322 melanoma cells; details: compared with the other peptides of PTC; cited from earlier work
[19] = test system: fresh human tumour specimens; assay: FMCA cytotoxic activity in 27 fresh human tumour specimens (Figure 2); type: cell-based; details: 27 human tumour samples, 14 hematological and 13 solid, comparative statement
[20] = test system: solid tumour fresh human tumour specimens (PHTC); details: 0.66 µM; n=22; 4320 min
[21] = test system: panel of ten human tumour cell lines; assay: cells; type: cell-based; details: mean over the ten cell lines; read-out: MEAN IC50
[22] = test system: CEM/R; assay: cells; type: cell-based, human; details: CEM/R; 72 hours incubation; read-out: IC50
[23] = test system: Ovarian carcinoma; assay: Cytotoxic activity in different tumour models; type: cell-based, human; details: Number 8
[24] = test system: ACHN; assay: cells; type: cell-based, human; details: ACHN, primary resistant renal carcinoma; 72 hours incubation; read-out: IC50
[25] = test system: Adeno-carcinoma; assay: Cytotoxic activity in different tumour models; type: cell-based, human; details: Number 5
[26] = test system: U937vcr; assay: cells; type: cell-based, human; details: U937vcr, vincristine resistance; 72 hours incubation; read-out: IC50
[27] = test system: 8226S; assay: cells; type: cell-based, human; details: 8226S, myeloma; 72 hours incubation; read-out: IC50

CCOC(=O)[C@H](Cc1ccc(O)cc1)NC(=O)[C@H](Cc1ccc(N(CCCl)CCCl)cc1)NC(C)=O [astyron, N-acetyl-L-melphalanyl-L-tyrosine ethyl ester]
sarcoma 45 growth [1]: inhibited sarcoma 45 growth

CC(C)[C@H](NC(=O)[C@@H](N)Cc1ccc(N(CCCl)CCCl)cc1)C(=O)O [L-melphalanyl-L-valine]
oxidative phosphorylation [2]: disrupted oxidative phosphorylation

CCOC(=O)[C@H](Cc1ccc(F)cc1)NC(=O)[C@H](Cc1cccc(N(CCCl)CCCl)c1)NC(=O)[C@@H]1CCCN1 [Example P2, L-prolyl-m-L-sarcolysyl-p-L-fluorophenylalanine ethyl ester hydrochloride, reference compound]
Median response at 4.0 µM >50% reduction in tumour cell survival [3]: No | Tumour cell survival index (%) Solid tumours [4]: 68.9% | Tumour cell survival index (%) Hematological tumours [5]: 7% | IC50 [6]: 0.94 µM | IC50 [7]: 4.27 µM | Median response at 4.0 µM >50% reduction in tumour cell survival [8]: No | Tumour cell survival index % Hematological [9]: 34.7% | Number of samples EDR ([10]; Extreme drug resistance): 1 | Number of samples (%) EDR ([10]; Extreme drug resistance, percent of samples): 5% | Number of samples IDR ([10]; Intermediate drug resistance): 4 | Number of samples (%) IDR ([10]; Intermediate drug resistance, percent of samples): 21% | Number of samples LDR ([10]; Low drug resistance): 14 | Number of samples (%) LDR ([10]; Low drug resistance, percent of samples): 74% | IC50 [11]: 7.4 µM | IC50 [12]: 4.59 µM | Median response at 4.0 µM >50% reduction in tumour cell survival [13]: No | Median response at 4.0 µM >50% reduction in tumour cell survival [14]: No | Tumour cell survival index (%) Total [15]: 46.1% | IC50 [16]: 5.43 µM | IC50 [17]: 1.78 µM | cytotoxicity [18]: more toxic to RPMI 8322 melanoma cells than any of the other peptides | IC50s (comparison) [19]: more active than melphalan | Tumour cell survival index % Solid [20]: 86.0% | IC50 [21]: 3.35 µM | IC50 [22]: 0.63 µM | Median response at 4.0 µM >50% reduction in tumour cell survival [23]: No | IC50 [24]: 4.59 µM | Median response at 4.0 µM >50% reduction in tumour cell survival [25]: No | IC50 [26]: 1.79 µM | IC50 [27]: 5.11 µM
